Measurements from article PMC5218480 (PLoS ONE, 2017).

Tested on: MV-4-11 cells
Assay: Gene expression microarray analysis (Affymetrix PrimeView) and GSEA
Format: cell-based, human
Parameters: RFU PODN (11730768_x_at) / Fold change /veh PODN (11730768_x_at) / RFU LINC00158 (11744669_a_at) / Fold change /veh LINC00158 (11744669_a_at) / RFU DUSP10 (11751237_a_at) / Fold change /veh DUSP10 (11751237_a_at) / RFU ID3 (11757404_x_at) / Fold change /veh ID3 (11757404_x_at) / RFU PLEKHG5 (11737974_s_at) / Fold change /veh PLEKHG5 (11737974_s_at) / RFU LRRC4B (11730491_at) / Fold change /veh LRRC4B (11730491_at) / RFU GIMAP4 (11747438_a_at) / Fold change /veh GIMAP4 (11747438_a_at) / RFU KRT8 (11758183_x_at) / Fold change /veh KRT8 (11758183_x_at) / RFU CNN1 (11734310_a_at) / Fold change /veh CNN1 (11734310_a_at) / RFU VPS37D (11726825_at) / Fold change /veh VPS37D (11726825_at) / RFU C10orf10 (11716522_x_at) / Fold change /veh C10orf10 (11716522_x_at) / RFU KIR2DL2 /// KIR2DL4 /// KIR2DL5A /// KIR2DL5B /// KIR2DS1 /// KIR2DS2 /// KIR2DS3 /// KIR2DS4 /// KIR3DL3 /// KIR3DL3 /// KIR3DS1 (11738374_at) / Fold change /veh KIR2DL2 /// KIR2DL4 /// KIR2DL5A /// KIR2DL5B /// KIR2DS1 /// KIR2DS2 /// KIR2DS3 /// KIR2DS4 /// KIR3DL3 /// KIR3DL3 /// KIR3DS1 (11738374_at) / RFU C1QL1 (11718748_at) / Fold change /veh C1QL1 (11718748_at) / RFU TMPRSS4 (11747572_a_at) / Fold change /veh TMPRSS4 (11747572_a_at) / RFU HAMP (11756126_x_at) / Fold change /veh HAMP (11756126_x_at) / RFU RNFT2 (11725882_a_at) / Fold change /veh RNFT2 (11725882_a_at) / RFU NR4A2 (11747474_a_at) / Fold change /veh NR4A2 (11747474_a_at) / RFU ABCC12 (11746883_a_at) / Fold change /veh ABCC12 (11746883_a_at) / RFU TMEM136 (11760407_x_at) / Fold change /veh TMEM136 (11760407_x_at) / RFU CLDN22 /// WWC2 (11732394_at) / Fold change /veh CLDN22 /// WWC2 (11732394_at) / RFU HLA-DPB1 (11760878_x_at) / Fold change /veh HLA-DPB1 (11760878_x_at) / RFU SPINT1 (11716480_a_at) / Fold change /veh SPINT1 (11716480_a_at) / RFU GAP43 (11754022_s_at) / Fold change /veh GAP43 (11754022_s_at) / RFU A4GNT (11735810_at) / Fold change /veh A4GNT (11735810_at) / RFU PRB3 (11715151_x_at) / Fold change /veh PRB3 (11715151_x_at) / RFU TUBB4B (11761932_at) / Fold change /veh TUBB4B (11761932_at) / RFU CAPN14 (11732068_a_at) / Fold change /veh CAPN14 (11732068_a_at) / RFU TMCC2 (11721928_a_at) / Fold change /veh TMCC2 (11721928_a_at) / RFU IRGQ (11745062_a_at) / Fold change /veh IRGQ (11745062_a_at) / RFU FAM174B (11720279_a_at) / Fold change /veh FAM174B (11720279_a_at) / RFU TMPRSS4 (11748680_a_at) / Fold change /veh TMPRSS4 (11748680_a_at) / RFU FAM212B (11763350_a_at) / Fold change /veh FAM212B (11763350_a_at) / RFU PLEKHG5 (11743358_a_at) / Fold change /veh PLEKHG5 (11743358_a_at) / RFU ZSCAN30 (11745921_a_at) / Fold change /veh ZSCAN30 (11745921_a_at) / RFU CMKLR1 (11741424_a_at) / Fold change /veh CMKLR1 (11741424_a_at) / RFU LOC101060620 /// MAPK8IP1 (11723275_at) / Fold change /veh LOC101060620 /// MAPK8IP1 (11723275_at) / RFU SPTSSB (11747773_x_at) / Fold change /veh SPTSSB (11747773_x_at) / RFU PRSS12 (11739890_at) / Fold change /veh PRSS12 (11739890_at) / RFU BIN1 (11741810_x_at) / Fold change /veh BIN1 (11741810_x_at) / RFU WNT11 (11732464_a_at) / Fold change /veh WNT11 (11732464_a_at) / RFU C10orf10 (11716521_a_at) / Fold change /veh C10orf10 (11716521_a_at) / RFU C5orf56 (11738089_at) / Fold change /veh C5orf56 (11738089_at) / RFU CYB561 (11721691_x_at) / Fold change /veh CYB561 (11721691_x_at) / RFU ANKRD19P (11752326_a_at) / Fold change /veh ANKRD19P (11752326_a_at) / RFU OR2T12 /// OR2T33 /// OR2T8 (11738714_s_at) / Fold change /veh OR2T12 /// OR2T33 /// OR2T8 (11738714_s_at) / RFU VCAN (11748164_a_at) / Fold change /veh VCAN (11748164_a_at) / RFU JSRP1 (11732532_at) / Fold change /veh JSRP1 (11732532_at) / RFU KRTAP10-11 (11738290_x_at) / Fold change /veh KRTAP10-11 (11738290_x_at) / RFU MYO3A (11730013_a_at) / Fold change /veh MYO3A (11730013_a_at) / RFU EBF3 (11725865_a_at) / Fold change /veh EBF3 (11725865_a_at) / RFU CAMK2N1 (11719241_x_at) / Fold change /veh CAMK2N1 (11719241_x_at) / RFU C5orf56 (11738088_a_at) / Fold change /veh C5orf56 (11738088_a_at) / RFU OLFML3 (11715873_a_at) / Fold change /veh OLFML3 (11715873_a_at) / RFU LOC100653217 /// NTM (11731650_a_at) / Fold change /veh LOC100653217 /// NTM (11731650_a_at) / RFU MAPK11 (11762145_a_at) / Fold change /veh MAPK11 (11762145_a_at) / RFU FIZ1 (11724087_x_at) / Fold change /veh FIZ1 (11724087_x_at) / RFU OASL (11726364_x_at) / Fold change /veh OASL (11726364_x_at) / RFU SOX15 (11748057_x_at) / Fold change /veh SOX15 (11748057_x_at) / RFU CD79A (11719716_a_at) / Fold change /veh CD79A (11719716_a_at) / RFU HIST1H1D (11736915_at) / Fold change /veh HIST1H1D (11736915_at) / RFU CASKIN2 (11723855_a_at) / Fold change /veh CASKIN2 (11723855_a_at) / RFU LOC730098 (11760151_x_at) / Fold change /veh LOC730098 (11760151_x_at) / RFU OR4N2 (11742367_at) / Fold change /veh OR4N2 (11742367_at) / RFU PRRT2 (11749266_a_at) / Fold change /veh PRRT2 (11749266_a_at) / RFU SNX32 (11753110_a_at) / Fold change /veh SNX32 (11753110_a_at) / RFU CDHR5 (11726645_a_at) / Fold change /veh CDHR5 (11726645_a_at) / RFU RCAN1 (11760418_a_at) / Fold change /veh RCAN1 (11760418_a_at) / RFU FAM167A (11723789_a_at) / Fold change /veh FAM167A (11723789_a_at) / RFU FAM26E (11764081_at) / Fold change /veh FAM26E (11764081_at) / RFU ISYNA1 (11749810_s_at) / Fold change /veh ISYNA1 (11749810_s_at) / RFU ACY1 (11761880_at) / Fold change /veh ACY1 (11761880_at) / RFU 11764098_at / Fold change /veh 11764098_at / RFU SAMD14 (11745864_x_at) / Fold change /veh SAMD14 (11745864_x_at) / RFU NPB (11741838_a_at) / Fold change /veh NPB (11741838_a_at) / RFU TMPRSS6 (11731388_a_at) / Fold change /veh TMPRSS6 (11731388_a_at) / RFU KRTAP10-2 (11738614_at) / Fold change /veh KRTAP10-2 (11738614_at) / RFU ARHGAP8 /// PRR5-ARHGAP8 (11727945_x_at) / Fold change /veh ARHGAP8 /// PRR5-ARHGAP8 (11727945_x_at) / RFU KRTAP5-7 /// NADSYN1 (11734609_at) / Fold change /veh KRTAP5-7 /// NADSYN1 (11734609_at) / RFU RASL12 (11751679_a_at) / Fold change /veh RASL12 (11751679_a_at) / RFU CDKN2B (11736163_a_at) / Fold change /veh CDKN2B (11736163_a_at) / RFU PRF1 (11729649_at) / Fold change /veh PRF1 (11729649_at) / RFU, ZNF638 /// ZNF638-IT1 / Fold change vs veh, ZNF638 /// ZNF638-IT1 / RFU, PANK3 / Fold change vs veh, PANK3 / RFU, SH3YL1 / Fold change vs veh, SH3YL1 / RFU, ZEB2 / Fold change vs veh, ZEB2 / RFU, NRIP1 / Fold change vs veh, NRIP1 / RFU, PTTG1IP / Fold change vs veh, PTTG1IP / RFU, CAPN2 / Fold change vs veh, CAPN2 / RFU, MED14 / Fold change vs veh, MED14 / RFU, SNORA58 / Fold change vs veh, SNORA58 / RFU, C1orf63 / Fold change vs veh, C1orf63 / RFU, LRRFIP1 / Fold change vs veh, LRRFIP1 / RFU, NDUFAF7 / Fold change vs veh, NDUFAF7 / RFU, SLC12A2 / Fold change vs veh, SLC12A2 / RFU, IBTK / Fold change vs veh, IBTK / RFU, ESF1 / Fold change vs veh, ESF1 / Fold change vs veh, TMEM50B / RFU, TAOK1 / Fold change vs veh, TAOK1 / RFU, ACBD3 / Fold change vs veh, ACBD3 / RFU, TMA16 / Fold change vs veh, TMA16 / RFU, RWDD3 / Fold change vs veh, RWDD3 / RFU, BCAT1 / Fold change vs veh, BCAT1 / RFU, EDEM3 / Fold change vs veh, EDEM3 / RFU, TMEM33 / Fold change vs veh, TMEM33 / RFU, WDR75 / Fold change vs veh, WDR75 / RFU, AHCTF1 / Fold change vs veh, AHCTF1 / RFU, TFRC / Fold change vs veh, TFRC / RFU, ZDHHC17 / Fold change vs veh, ZDHHC17 / RFU, NOM1 / Fold change vs veh, NOM1 / RFU, ARL8B / Fold change vs veh, ARL8B / RFU, ZBTB11 / Fold change vs veh, ZBTB11 / RFU, TAMM41 / Fold change vs veh, TAMM41 / RFU, KIAA1704 /// LOC100996395 / Fold change vs veh, KIAA1704 /// LOC100996395 / RFU, ING1 / Fold change vs veh, ING1 / RFU, TRMT61B / Fold change vs veh, TRMT61B / RFU, FUBP3 / Fold change vs veh, FUBP3 / RFU, TP53 / Fold change vs veh, TP53 / RFU, TNKS2 / Fold change vs veh, TNKS2 / RFU, ZFP14 / Fold change vs veh, ZFP14 / RFU, ACTR2 / Fold change vs veh, ACTR2 / RFU, PPP3R1 / Fold change vs veh, PPP3R1 / RFU, PIK3R1 / Fold change vs veh, PIK3R1 / RFU, HNRNPA1 / Fold change vs veh, HNRNPA1 / RFU, RNF170 / Fold change vs veh, RNF170 / RFU, ZNF28 / Fold change vs veh, ZNF28 / RFU, RNGTT / Fold change vs veh, RNGTT / RFU, OGT / Fold change vs veh, OGT / RFU, BRD1 / Fold change vs veh, BRD1 / RFU, MARS / Fold change vs veh, MARS / RFU, ZNF655 / Fold change vs veh, ZNF655 / RFU, FAHD1 / Fold change vs veh, FAHD1 / RFU, BDP1 / Fold change vs veh, BDP1 / RFU, LRRCC1 / Fold change vs veh, LRRCC1 / RFU, ARID1A / Fold change vs veh, ARID1A / RFU, ZNF146 / Fold change vs veh, ZNF146 / RFU, ZNF330 / Fold change vs veh, ZNF330 / RFU, GPN3 / Fold change vs veh, GPN3 / RFU, C9orf123 / Fold change vs veh, C9orf123 / RFU, N4BP2L2 / Fold change vs veh, N4BP2L2 / RFU, ARFIP1 / Fold change vs veh, ARFIP1 / RFU, FAM179B / Fold change vs veh, FAM179B / RFU, BCL10 / Fold change vs veh, BCL10 / RFU, UHRF1BP1L / Fold change vs veh, UHRF1BP1L / RFU, BET1 / Fold change vs veh, BET1 / RFU, CNOT2 / Fold change vs veh, CNOT2 / RFU, ZNF268 / Fold change vs veh, ZNF268 / Fold change vs veh, ZNF507 / RFU, DGCR2 / Fold change vs veh, DGCR2 / RFU, WDSUB1 / Fold change vs veh, WDSUB1 / Fold change vs veh, HSP90B1 /// MIR3652 / RFU, ADSS / Fold change vs veh, ADSS / RFU, GK / Fold change vs veh, GK / RFU, ZNF148 / Fold change vs veh, ZNF148 / RFU, TAF9 / Fold change vs veh, TAF9 / RFU, SLC1A5 / Fold change vs veh, SLC1A5 / RFU, SLMO2 / Fold change vs veh, SLMO2 / RFU, ABCC4 / Fold change vs veh, ABCC4 / RFU, LOC101060439 /// RAP1B / Fold change vs veh, LOC101060439 /// RAP1B / RFU, RFX7 / Fold change vs veh, RFX7 / RFU, GTPBP10 / Fold change vs veh, GTPBP10 / RFU, CNEP1R1 / Fold change vs veh, CNEP1R1 / RFU, BIVM-ERCC5 /// ERCC5 / Fold change vs veh, BIVM-ERCC5 /// ERCC5 / RFU, ILF3 / Fold change vs veh, ILF3 / RFU 11762660_at / Fold change /veh 11762660_at / RFU VCAN (11757783_s_at) / Fold change /veh VCAN (11757783_s_at) / RFU DDX43 (11728927_at) / Fold change /veh DDX43 (11728927_at) / RFU KRT8 (11758188_x_at) / Fold change /veh KRT8 (11758188_x_at) / RFU NKD1 (11759106_at) / Fold change /veh NKD1 (11759106_at) / RFU SRD5A1 (11742802_a_at) / Fold change /veh SRD5A1 (11742802_a_at) / RFU TPSAB1 /// TPSB2 (11721975_s_at) / Fold change /veh TPSAB1 /// TPSB2 (11721975_s_at) / RFU GSTM3 (11746129_a_at) / Fold change /veh GSTM3 (11746129_a_at) / RFU IL23R (11737362_x_at) / Fold change /veh IL23R (11737362_x_at) / RFU TMEM51 (11727254_a_at) / Fold change /veh TMEM51 (11727254_a_at) / RFU PIWIL2 (11732686_x_at) / Fold change /veh PIWIL2 (11732686_x_at) / RFU ORM1 (11744905_x_at) / Fold change /veh ORM1 (11744905_x_at) / RFU CCDC152 (11743942_at) / Fold change /veh CCDC152 (11743942_at) / RFU ECM1 (11717891_a_at) / Fold change /veh ECM1 (11717891_a_at) / RFU IL23R (11748794_a_at) / Fold change /veh IL23R (11748794_a_at) / RFU TNFAIP8L3 (11732012_x_at) / Fold change /veh TNFAIP8L3 (11732012_x_at) / RFU MBOAT4 (11741988_at) / Fold change /veh MBOAT4 (11741988_at) / RFU 11764193_at / Fold change /veh 11764193_at / RFU TMEM53 (11763286_at) / Fold change /veh TMEM53 (11763286_at) / RFU MAGEB2 (11727129_at) / Fold change /veh MAGEB2 (11727129_at) / RFU TMEM200A (11744735_a_at) / Fold change /veh TMEM200A (11744735_a_at) / RFU CCDC152 (11751479_a_at) / Fold change /veh CCDC152 (11751479_a_at) / RFU FAM211A (11726209_a_at) / Fold change /veh FAM211A (11726209_a_at) / RFU RGS16 (11746705_a_at) / Fold change /veh RGS16 (11746705_a_at) / RFU VCAN (11755009_s_at) / Fold change /veh VCAN (11755009_s_at) / RFU RHOB (11743442_s_at) / Fold change /veh RHOB (11743442_s_at) / RFU RGS16 (11720943_a_at) / Fold change /veh RGS16 (11720943_a_at) / RFU RGS16 (11720944_at) / Fold change /veh RGS16 (11720944_at) / RFU, VPS4B / Fold change vs veh, VPS4B / RFU, CREB1 / Fold change vs veh, CREB1 / RFU, DNAJC13 / Fold change vs veh, DNAJC13 / RFU, GNAQ / Fold change vs veh, GNAQ / RFU, CDK5R1 / Fold change vs veh, CDK5R1 / RFU, ZRANB3 / Fold change vs veh, ZRANB3 / RFU, CUL4A / Fold change vs veh, CUL4A / RFU, CCNY / Fold change vs veh, CCNY / RFU, UFL1 / Fold change vs veh, UFL1 / RFU, COG3 / Fold change vs veh, COG3 / RFU, DIAPH2 / Fold change vs veh, DIAPH2 / RFU, SKA2 / Fold change vs veh, SKA2 / RFU, AFF3 / Fold change vs veh, AFF3 / RFU, LMF1 / Fold change vs veh, LMF1 / RFU, IPO11 / Fold change vs veh, IPO11 / RFU, DFFB / Fold change vs veh, DFFB / RFU, FOXP1 / Fold change vs veh, FOXP1 / RFU, CARD8 / Fold change vs veh, CARD8 / RFU, STRN3 / Fold change vs veh, STRN3 / RFU, ADK / Fold change vs veh, ADK / RFU, RASSF2 / Fold change vs veh, RASSF2 / RFU, WIPF1 / Fold change vs veh, WIPF1 / RFU, LARP1B / Fold change vs veh, LARP1B / RFU, RASA1 / Fold change vs veh, RASA1 / RFU, RB1 / Fold change vs veh, RB1 / RFU, PPFIA1 / Fold change vs veh, PPFIA1 / RFU, MAT2A / Fold change vs veh, MAT2A / RFU, CCT5 / Fold change vs veh, CCT5 / RFU, WDR92 / Fold change vs veh, WDR92 / RFU, CUX1 / Fold change vs veh, CUX1 / RFU, TTC7A / Fold change vs veh, TTC7A / RFU, TMEM135 / Fold change vs veh, TMEM135 / RFU, DEPTOR / Fold change vs veh, DEPTOR / RFU, CPM / Fold change vs veh, CPM / RFU, DNAJB6 / Fold change vs veh, DNAJB6 / RFU, CACNA2D3 / Fold change vs veh, CACNA2D3 / RFU, DTX4 / Fold change vs veh, DTX4 / RFU, TFCP2 / Fold change vs veh, TFCP2 / RFU, GMCL1 /// GMCL1P1 / Fold change vs veh, GMCL1 /// GMCL1P1 / RFU, AEBP2 / Fold change vs veh, AEBP2 / RFU, SNHG1 /// SNORD22 /// SNORD25 /// SNORD26 /// SNORD27 /// SNORD28 /// SNORD29 /// SNORD31 / Fold change vs veh, SNHG1 /// SNORD22 /// SNORD25 /// SNORD26 /// SNORD27 /// SNORD28 /// SNORD29 /// SNORD31 / Fold change (Aza/veh), C12orf56 (ProbeSet 11735607_a_at) / Fold change (ACY-1035/veh), C12orf56 (ProbeSet 11735607_a_at) / Fold change (Aza/veh), FGFR1OP (ProbeSet 11751329_s_at) / Fold change (ACY-1035/veh), FGFR1OP (ProbeSet 11751329_s_at) / Fold change (Aza/veh), VPS36 (ProbeSet 11739960_a_at) / Fold change (ACY-1035/veh), VPS36 (ProbeSet 11739960_a_at) / RFU SYPL1 (11715823_x_at) / Fold change /veh SYPL1 (11715823_x_at) / RFU IGFBP7 (11715501_s_at) / Fold change /veh IGFBP7 (11715501_s_at) / RFU REEP3 (11722064_at) / Fold change /veh REEP3 (11722064_at) / RFU IGLL1 (11728026_x_at) / Fold change /veh IGLL1 (11728026_x_at): dose or concentration left out as unconfirmed
Details: ProbeSet 11730252_s_at; LIST B

Nc1ccc(-c2cccs2)cc1NC(=O)c1ccc2c(c1)cc(C1CC1)n2CCN1CCOCC1 [ACY-1035]
RFU, AHCTF1: 224.50 RFU
